The record followed here is patent US20250064762A1, “A SUBSTITUTED AROMATIC DICARBONIC ACID AMIDE AS AN INHIBITOR OF THE FERROPTOSIS SUPPRESSOR PROTEIN-1 (FSP1)” (JULIUS-MAXIMILIANS-UNIVERSITÄT WÜRZBURG, priority 2021, published 2025).

Data set [1] concerns the target T1, human FSP1 (Homo sapiens, UniProt Q9BRQ8).
T1 construct: His6 (N, cleaved yes); made in house; host or cells: Escherichia coli BL21 pG-Tf2
T1 sequence (Q9BRQ8 1-373): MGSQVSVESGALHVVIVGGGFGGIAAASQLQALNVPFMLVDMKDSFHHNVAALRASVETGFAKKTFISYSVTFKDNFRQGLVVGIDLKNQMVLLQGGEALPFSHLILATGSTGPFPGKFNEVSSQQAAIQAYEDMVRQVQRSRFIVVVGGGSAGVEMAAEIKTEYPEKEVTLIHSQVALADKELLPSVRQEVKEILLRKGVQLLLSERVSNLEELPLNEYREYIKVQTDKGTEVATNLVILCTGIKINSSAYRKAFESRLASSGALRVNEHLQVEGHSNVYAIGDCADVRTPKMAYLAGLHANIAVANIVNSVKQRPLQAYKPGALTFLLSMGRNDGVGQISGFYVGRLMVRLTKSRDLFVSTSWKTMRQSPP
Put plainly: In vitro FSP1 oxidoreductase (NADH consumption) assay, human FSP1. Format: biochemical. The conditions noted are these: resazurine or coQ1 as electron acceptor. How it is done:
FSP1 activity assays were performed using recombinant, purified murine or human FSP1, NADH, and resazurine or coenzyme-Q1 (coQ1) as electron acceptor molecules. The following conditions were used: 200 μM resazurine were reduced with 750 nM mFSP1 or 150 nM hFSP1; 100 μM coQ1 was reduced with 400 nM mFSP1; and 137 μM coQ1 were reduced with 200 nM hFSP1. The consumption of NADH (500 μM) was measured at 340 nm in phosphate-buffered saline (80 mM Na3PO4, 300 mM NaCl; pH 7.0) at room temperature on a CLARIOstar microplate reader (BMG Labtech). Initial rates were determined, and data were fitted by linear regression using GraphPad Prism software, version 9.1.2.
In order to determine inhibition of FSP1 by CPBA, FSP1 activity was measured […] either CPBA or iFSP1 as a positive control. In vitro FSP1 oxidoreductase activity assays were performed using recombinant, purified murine or human FSP1, NADH, and resazurine or coenzyme-Q1 (coQ1) as electron acceptor molecules as described above (see FIG. 19).
In vitro FSP1 activity assays with human (see FIG. 22 C) or murine (see FIG. 22 D) FSP1 were performed as described above. Shown are NADH consumption assays using recombinant, purified human or mouse FSP1 (hFSP1, mFSP1) and resazurine or coenzyme-Q1 (CoQ1) as electron acceptor molecules.
(In general: Alamar Blue is a resazurin reagent that responds to reducing activity.)

Data set [2] has as its system HT1080, Du145 or PC3 cells. As to the kind of experiment: Cell viability with CPBA alone, no ferroptosis inducers. Format: cell-based. The conditions noted are these: 16 h. How it is done:
(§1) Cells were seeded onto 96-well plates (5,000 cells per well), and treated with serial dilutions of ferroptosis-inducing compounds (erastin, BSO, RSL3, FIN56) or cytotoxic drugs (staurosporine, nocodazole, tunicamycin, paclitaxel, etoposide, menadione, rotenone, FCCP, carboplatin) in the absence or presence of CPBA or iFSP1 (100 μM or 10 μM, respectively; unless stated otherwise) or the DMSO solvent control. Ferroptotic cell death was evaluated by incubating in the absence or presence of liproxstatin-1 (100 nM), ferrostatin-1 (200 nM), or deferoxamine (100 μM). Cell viability was assessed after 16 h using AquaBluer as an indicator of viable cells according to the manufacturer's recommendations (MultiTarget Pharmaceuticals, LLC). Fluorescence (excitation, 540 nm; emission, 590 nm) was analyzed on a Clariostar microplater reader.
To study the effect of increasing CPBA concentrations in the absence of ferroptosis inducers on the viability of HT1080, Du145 or PC3 cells. Cells were incubated with the indicated concentrations of CPBA alone or in the presence of ferroptosis inhibitors deferoxamine (DFO, an iron-chelator and ferroptosis inhibitor); ferrostatin (fer, a ferroptosis inhibitor); liproxstatin-1 (lip-1, a ferroptosis inhibitor); or zVAD-FMK (a pan-caspase and apoptosis inhibitor), and cell viability was analyzed after 16 h.

In data set [3] the test system is HT1080 cells. Put plainly: FIN56-induced cell death with or without DGAT1/2 inhibitors. It is filed as cell-based, human. The conditions noted are these: CPBA versus CPBA+iDGAT1/2. As for the experimental part:
as §1
The diglyceride acyltransferase isoforms 1 and 2 (DGAT1, DGAT2) are required to catalyze the formation of triglycerides from diacylglycerol and acyl-CoA.

Data set [4] addresses T2, murine PGP (Mus musculus, UniProt Q8CHP8).
T2 construct: made in house
T2 sequence (Q8CHP8 1-321): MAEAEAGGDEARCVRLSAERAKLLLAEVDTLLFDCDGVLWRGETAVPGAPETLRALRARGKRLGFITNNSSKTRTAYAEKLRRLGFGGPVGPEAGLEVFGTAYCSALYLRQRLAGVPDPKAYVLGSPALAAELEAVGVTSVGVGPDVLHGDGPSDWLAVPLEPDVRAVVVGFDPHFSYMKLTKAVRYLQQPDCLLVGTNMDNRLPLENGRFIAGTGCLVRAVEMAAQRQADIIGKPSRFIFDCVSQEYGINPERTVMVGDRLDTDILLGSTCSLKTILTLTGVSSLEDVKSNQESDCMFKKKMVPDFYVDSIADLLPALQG
Put plainly: In vitro phosphoglycolate phosphatase assay (malachite green). Format: biochemical. How it is done: Recombinant, purified murine phosphoglycolate phosphatase (PGP) was expressed and purified as described (Seifried et al., 2014). Experiments were performed in TNM30 (30 mM triethanolamine, 30 mM NaCl, 5 mM MgCl2; PH 7.5), supplemented with 0.01% (v/v) Triton X-100 and 5 mM dithiothreitol (DTT). Assays were conducted at room temperature in a final reaction volume of 50 μL in 96-well microtiter plates. PGP (5.7 nM) was pre-incubated with the compounds or the DMSO solvent control for 10 min, and enzyme reactions were started by the addition of the substrate phosphoglycolate (PG, 200 μM). Buffer without enzyme served as a background control. Inorganic phosphate release from PG was detected with malachite green solution (Biomol Green; Enzo Life Sciences). The absorbance at 620 nm (A620) was measured on an Envision 2104 multilabel microtiter plate reader (Perkin Elmer Life Sciences). Released phosphate was determined by converting the values to nmol Pi with a phosphate standard curve. Data were analyzed with GraphPad Prism version 7.0.5. For IC50 determinations, loginhibitor versus response was calculated for a Hill slope of −1.
Free inorganic phosphate released by PG dephosphorylation was quantified using malachite green.

As for `O=C(Nc1ccccc1C(=O)O)c1ccc(Oc2ccc(C(=O)Nc3ccccc3C(=O)O)cc2)cc1` [CPBA, 2-[[4-[4-[(2-carboxyphenyl)carbamoyl]phenoxy]benzoyl]amino]-benzoic acid], the “inhibition of human FSP1 activity” value in data set [1] was “inhibits human and murine FSP1 activity”. The “cell death with the compound alone” value in data set [2] (400 μM CPBA) is “Non-ferroptotic, non-apoptotic cell death is observed”. The “concentrations at which the compound alone is not cytotoxic” value in data set [2] (no ferroptosis inducers) is listed as “up to 200 μM”. In addition, the “influence of lipid droplets on sensitization to FIN56-induced cell death” value in data set [3] is reported as “the absence or presence of lipid droplets did not influence the CPBA-mediated sensitization of HT1080 cells to FIN56-induced cell death”. Also, in data set [4], the “inhibition of PGP” value is on record as “inhibitor of PGP”.

As to `Cc1ccc(-c2c(C#N)c(N)n3c(nc4ccccc43)c2C#N)cc1` [iFSP1, reference compound], the “inhibition of human FSP1 activity” value in data set [1] is recorded as “is an inhibitor of human FSP1”.
